From patent publication US11365215B2, “Method for preventing, improving, or treating inflammatory bowel disease” (Research & Business Foundation Sungkyunkwan University, priority 2015, dated 2022)
Peptide text beside a SMILES is read from it.

Columns and labels:
Type in all cases: cell-based
interleukin-6 = test: Suppression of LPS-induced IL-6 expression in RAW 264.7 macrophage cells (RT-PCR, Real-Time PCR); settings: pretreated 100 nM for 30 min, LPS two hours, compared to untreated sample
Description: First, RAW 264.7 macrophage cells were purchased from American Type Culture Collection (ATCC; Manassas, Va.), and were culture at a temperature of 37° C., under 5% CO2 atmosphere, using 10% Fetal Bovine Serum (FBS) and Dulbecco's Modified Eagle's Medium (DMEM) containing 1% penicillin/streptomycin.
The cultured RAW 264.7 macrophage cells were divided into a 6-well cell culture plate. After 24 hours, the cells were pretreated with compound 1.1 (SEQ ID NO: 2), compound 1.2, and smaducin-6, respectively, in a concentration of 100 nM for 30 min, and further treated with lipopolysaccharides (LPS) for two hours. These cells were collected using TRIzol® and the RNA was extracted. From 2 μg of the extracted RNA, cDNAs (complementary deoxyribonucleic acids) were synthesized and reverse transcription polymerase chain reactions (RT-PCR) and real-time polymerase chain reactions (Real-Time PCR) were performed. Samples from the RT-PCR were confirmed by electrophoresis on agarose gels and quantified using densitometer. A glyceraldehyde 3-phosphate dehydrogenase (GAPDH) gene was used as a loading control for the interleukin-6 gene.
RAW 264.7 macrophage cells were treated with varying concentrations of compound 1.1 (SEQ ID NO: 2) from 50 pM to 500 nM for 30 minutes, and treated with 100 ng/mL of LPS for two hours.

NF-κB = test: 5×NF-κB-Luc reporter luciferase assay in LPS-treated RAW 264.7 cells
Description: Specifically, 5×NF-κB-Luc reporter plasmid was transfected into RAW 264.7 cells using Effectene (Qiagen, USA). The transfected cells were pretreated with 100 nM of compound 1.1 (SEQ ID NO: 2) for 30 minutes, and further treated with LPS (100 ng/ml) for two hours, and luciferase activity in the cells was measured (FIG. 4 depicts a graph showing relative inhibition activities of compound 1.1 (SEQ ID NO: 2) and compound 1.2 to NF-κB activation). When the cells were treated with compound 1.1 (SEQ ID NO: 2) and compound 1.2 according to the present invention, activation of NF-κB, which was induced by LPS, was inhibited (FIG. 4).
In addition, 5×NF-κB-Luc reporter plasmid was transfected into RAW 264.7 macrophage cells and treated with compounds of the present invention, as described above. After 24 hours of the transfection, the cells were pretreated with DMSO (control), compound 1.1 (SEQ ID NO: 2), reference compound 1 (SEQ ID NO: 16) (compound where palmitic acid is removed from compound 1.1 (SEQ ID NO: 2)), and smaducin-6 were treated at various concentrations of 100 pM, 1 nM, and 100 nM for 30 minutes, and then the cells were treated with 100 ng/ml of LPS for two hours.
Specifically, 5×NF-κB-Luc reporter plasmid, SBE-Luc reporter plasmid, and BRE-Luc reporter plasmid were individually transfected into Raw 264.7 macrophage cells. After 24 hours, the cells transfected with the NF-κB-Luc reporter plasmid were treated with 100 ng/mL of LPS, the cells transfected with the SBE-Luc reporter plasmid were treated with 5 ng/mL of TFG-β1, and the cells transfected with the BRE-Luc reporter plasmid were treated with 100 ng/mL of BMP6 for two hours.
As described in Example 2.3, 5×NF-κB-Luc reporter plasmid was transfected into RAW 246.7 macrophage cells. After 24 hours, the cells transfected with NF-κB-Luc reporter plasmid were pretreated with compound 1.1 (SEQ ID NO: 2) (100 nM), interleukin-1-receptor-associated-kinase-1/4 inhibitor (IRAK1/4) inhibitor (25 μM, CAS 509093-47-4), and smaducin-6 (100 nM) for 30 minutes, and then further treated with LPS (100 ng/ml) for 2 hours. Subsequently, luciferase activities in the cells were measured.

[1] = system: inflammatory signaling pathway protein complex mediated by MyD88 or RIP1; test: Immunoprecipitation of inflammatory signaling pathway protein complex in LPS-treated RAW264.7 cells; settings: pretreated, then LPS
From the text: Specifically, using antibodies corresponding to proteins which relate to the formation of Toll-like receptors (TLRs) signaling pathway protein complex (for example, IRAK1, TRAF6, MyD88, RIP1 and Pellino-1), disruption of the formation of inflammatory signaling pathway protein complexes was affirmed by immunoprecipitation. As reference control, a relative amount of expression of β-actin from the total cell lysate was compared and presented using Western blot.
RAW264.7 macrophage cells were individually retreated with compound 1.1 (SEQ ID NO: 2) and compound 1.2, and smaducin-6, and further treated with LPS. These RAW264.7 macrophage cells were collected, lysed in a lysis butter (PBS containing 0.5% Triton X-100, 20 mM HEPES (pH 7.4), 150 mM NaCl, 12.5 mM β-glycerol phosphate, 1.5 mM MgCl2, 10 mM NaF, 2 mM DTT, 1 mM Na3O4V, 2 mM EGTA, and 1 mM Protease Inhibitor (PMSF)), and centrifuged at 13000 rpm for 10 minutes. For immunoprecipitation assays, the supernatant was incubated at 4° C. for 12 hours, with protein-A agarose beads and the antibodies corresponding to the above proteins, and the beads were subsequently washed three times with the lysis buffer. The immunoprecipitated substances were dissociated from the beads with addition of 2× sample buffer, and were boiled. The prepared samples were loaded on SDS-polyacrylamide gel (FIG. 7).

[2] = system: MAPK signaling pathway proteins (ERK1/2, JNK, p38); test: Western blot of MAPK signaling pathway protein phosphorylation in LPS-treated RAW 246.7 cells; settings: for phosphorylation of the MAPK signaling pathway proteins (ERK1/2, JNK, p38): 100 nM for 30 minutes, LPS 0, 0.5, 1 and 2 hours
Description: RAW 246.7 macrophage cells were pretreated with compound 1.1 (SEQ ID NO: 2), compound 1.2 and reference compound 1 (SEQ ID NO: 16) at a concentration of 100 nM for 30 minutes and then further treated with LPS for 0 hour, 0.5 hour, 1 hour and 2 hours. […] Changes of the concentration upon phosphorylation of each protein were measured by immunoblotting using anti-phosphorylation antibodies.
Specifically, RAW 246.7 macrophage cells were pretreated with DMSO, compound 1.1 (SEQ ID NO: 2) (100 nM), IRAK1/4 inhibitor (25 μM), and smaducin-6 (100 nM) for 30 minutes, and then further treated with LPS (100 ng/ml) for two hours.

AP-1 = test: AP-1-Luc reporter luciferase assay in LPS-treated RAW 246.7 cells; settings: 25 μM for 30 minutes, LPS 100 ng/ml 2 hours
Description: RAW 246.7 macrophage cells were transfected with AP-1-Luc reporter plasmid as described in Example 2.3. After 24 hours, the transfected cells with AP-1-Luc reporter plasmid were pretreated with compound 1.1 (SEQ ID NO: 2) (100 nM), IRAK1/4 inhibitor (25 μM), and smaducin-6 (100 nM) for 30 minutes, and then further treated with LPS (100 ng/ml) for 2 hours.

[3] = target: T1, inflammatory signaling pathway complex mediated by MyD88 and RIP1 (Mus musculus, UniProt P22366+Q60855); test: Immunoprecipitation/immunoblot of inflammatory signaling pathway complex in LPS-treated BMDM cells; settings: 100 pM, 1 nM, 100 nM, then 100 ng/mL LPS
T1 construct: endogenous in cells; host or cells: bone-marrow-derived macrophage (BMDM) cells
T1 sequence (P22366 whole entry): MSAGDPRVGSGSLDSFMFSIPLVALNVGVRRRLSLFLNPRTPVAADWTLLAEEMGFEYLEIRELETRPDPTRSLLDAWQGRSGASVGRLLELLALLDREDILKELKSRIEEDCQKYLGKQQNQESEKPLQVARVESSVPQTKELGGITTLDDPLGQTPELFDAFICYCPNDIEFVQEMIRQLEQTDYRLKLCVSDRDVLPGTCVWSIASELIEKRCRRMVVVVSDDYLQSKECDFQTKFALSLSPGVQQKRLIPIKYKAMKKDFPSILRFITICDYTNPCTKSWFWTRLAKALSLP
T1 sequence (Q60855 whole entry): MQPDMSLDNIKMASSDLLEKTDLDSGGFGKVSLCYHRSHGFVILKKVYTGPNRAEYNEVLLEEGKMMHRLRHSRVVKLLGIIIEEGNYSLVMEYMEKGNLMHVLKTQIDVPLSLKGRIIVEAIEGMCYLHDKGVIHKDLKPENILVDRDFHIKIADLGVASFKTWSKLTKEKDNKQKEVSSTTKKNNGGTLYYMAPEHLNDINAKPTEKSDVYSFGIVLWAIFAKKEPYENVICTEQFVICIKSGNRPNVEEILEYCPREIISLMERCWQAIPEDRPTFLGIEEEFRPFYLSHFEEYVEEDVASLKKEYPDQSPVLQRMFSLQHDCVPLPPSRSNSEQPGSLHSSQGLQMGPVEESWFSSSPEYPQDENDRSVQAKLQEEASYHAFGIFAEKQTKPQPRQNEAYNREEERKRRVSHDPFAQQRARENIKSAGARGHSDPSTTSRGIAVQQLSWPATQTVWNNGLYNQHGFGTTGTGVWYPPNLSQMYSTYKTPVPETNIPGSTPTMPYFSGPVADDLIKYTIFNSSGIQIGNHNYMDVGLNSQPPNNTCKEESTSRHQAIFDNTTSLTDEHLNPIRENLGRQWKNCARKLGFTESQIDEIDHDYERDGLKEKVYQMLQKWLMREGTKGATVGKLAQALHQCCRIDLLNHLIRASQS
Description: Bone-marrow-derived macrophage (BMDM) cells were individually pretreated with compound 1.1 (SEQ ID NO: 2), reference compound 1 (SEQ ID NO: 16), and smaducin-6 at various concentrations of 100 pM, 1 nM, and 100 nM, and then further treated with 100 ng/mL of LPS.

Row | Molecule | expression of interleukin-6 induced by LPS treatment (interleukin-6) | activation of NF-κB induced by LPS (luciferase activity) (NF-κB; 100 nM for 30 minutes, LPS 100 ng/ml two hours) | formation of inflammatory signaling pathway protein complex mediated by MyD88 or RIP1 [1] | phosphorylation of the MAPK signaling pathway proteins (ERK1/2, JNK, p38) [2] | NF-κB activation (luciferase activity) (NF-κB; 25 μM for 30 minutes, LPS 100 ng/ml 2 hours) | MAPK signaling pathway / phosphorylation of ERK, JNK, p38 ([2]; 25 μM for 30 minutes, LPS 100 ng/ml two hours) | AP-1-Luc luciferase activity (MAPK signaling pathway) (AP-1) | inhibition of the activity of NF-κB induced by LPS, dose dependence (NF-κB; 100 pM, 1 nM, 100 nM for 30 minutes, LPS 100 ng/ml two hours) | formation of inflammatory signaling pathway complex mediated by MyD88 and RIP1 [3]
1 | CCCCCCCCCCCCCCCC(=O)N1CCC[C@H]1C(=O)NCC(=O)N[C@@H](Cc1ccc(O)cc1)C(=O)O [compound 1.2, (S)-3-(4-hydroxyphenyl)-2-(2-((S)-1-palmitoylpyrrolidine-2-carboxamido)acetamido)propanoic acid] (HELM PEPTIDE1{[CCCCCCCCCCCCCCCC(=O)[*:2]].P.G.Y}$$$$V2.0) | suppressed | inhibited | disrupted | did not inhibit phosphorylation | – | – | – | – | –
2 | O=C(Nc1nc2ccccc2n1CCN1CCOCC1)c1cccc([N+](=O)[O-])c1 [IRAK1/4 inhibitor, reference compound] | – | – | – | – | inhibited | suppressed at least one or more of MAPK signaling pathways | inhibited MAPK signaling pathway | – | –
3 | reference compound 1: compound where palmitic acid is removed from compound 1.1 (SEQ ID NO: 2) (PPGY) [reference compound] | – | – | – | did not inhibit phosphorylation | – | – | – | not inhibited in dose dependent manner | formed the inflammatory signaling pathway complex
